{"source": "patent US9334530B2", "about": "“Methods for making and imaging arrays that comprise a plurality of different biomolecules” (AmberGen, Inc., priority 2007, dated 2016)", "target": "T1, PKCα (Homo sapiens, UniProt P17252)", "T1 construct": "isolate and photo-release endogenous PKCa from the undiluted detergent fractionated HeLa cell extracts; endogenous in cells; host or cells: HeLa cells (ATCC)", "assay": "PMA mediated PKCα sub-cellular translocation, measured by kinase activity after photocleavable antibody isolation", "assay_type": "cell-based", "settings": "cultured HeLa cells stimulated with 200 nM PMA for 5 min, detergent fractionated; based on kinase activity of isolated PKCα; n=4", "experimental": "FIG. 20. Phorbol ester (PMA) mediated protein kinase Cα (PKCα) sub-cellular translocation as measured by functional activity following isolation with photocleavable antibodies. Cultured HeLa cells were stimulated with 200 nM PMA for 5 min and detergent fractionated into the cytosol and membrane compartments prior to isolation and purification with the photocleavable antibodies.\nCultured HeLa cells (ATCC; Manassas, Va.) were stimulated for 5 min with 200 nM Phorbol-12-Myristate-13-Acetate (PMA; EMD Biosciences, Inc., San Diego, Calif.) and subsequently detergent fractionated into sub-cellular compartments according to reported procedures [Ramsby et al. (1994) Electrophoresis 15, 265-277; Ramsby & Makowski. (1999) Methods Mol Biol 112, 53-66; Chiang et al. (2000) J Biochem Biophys Methods 46, 53-68]. PMA is a potent activator of PKCα and is well known to cause translocation of the kinase from the cytosolic to the membrane sub-cellular compartments [Ross & Joyner. (1997) Endothelium 5, 321-332; Bazan & Rapoport. (1996) JPharmacol Toxicol Methods 36, 87-95; Yazlovitskaya & Melnykovych. (1995) Cancer Lett 88, 179-183]. […]"}
{"smiles": "CCCCCCCCCCCCCC(=O)O[C@@H]1[C@@H](C)[C@@]2(O)[C@@H](C=C(CO)C[C@]3(O)C(=O)C(C)=C[C@@H]23)[C@@H]2C(C)(C)[C@]12OC(C)=O", "note": "[PMA, Phorbol-12-Myristate-13-Acetate]", "values": [{"measurement": "relative sub-cellular distribution of PKCα: cytosol", "value": "16±4", "unit": "%"}, {"measurement": "relative sub-cellular distribution of PKCα: membrane", "value": "84±3", "unit": "%"}]}
